Laboratory results published in patent US10023836B2, “Medium for yeasts” (YAMAGUCHI UNIVERSITY, priority 2012, dated 2018).
Counter-ions that a name gives are not always drawn.

Experiments:
RAK2683 yeast strain [1] = assay: Candidate proliferation factors added to BM culture medium (FIG. 4); type: cell-based, Saccharomyces cerevisiae; details: 24 hours
Method: Next, the yeast extract (M<5000) was further fractionated and proliferation was tested. […] As the substances having a molecular weight of roughly 500<M<1000, Acetyl-CoA, CoA, yeast RNA (RNA), and NAD were selected; each was added to a BM culture medium; and RAK2683 yeast strain was cultivated for 24 hours, after which OD600 was measured. Moreover, the yeast extract (YE)-added culture medium and YPD culture medium were treated as positive controls.

[2] = system: commercially available baker's yeast; assay: Aspartic acid swapped with ammonium sulfate, compared with MM and YPD (FIG. 2); type: cell-based; details: between 0.5 and 2.0% aspartic acid added
Method: In Table 4, a culture medium was prepared in which aspartic acid (Asp), which had the highest value for OD600 after 48 hours, was swapped with ammonium sulfate, and the proliferation of yeast (commercially available baker's yeast) in the MM culture medium and YPD was compared. […] Based on this information, a BM culture medium in which 2% aspartic acid had been added as a nitrogen source to 0.17% YNB and 2% glucose was used as an object of investigation.

RAK2683 yeast strain [3] = assay: Investigation of nitrogen source used singly in MM culture medium instead of ammonium sulfate (Table 4); type: cell-based, Saccharomyces cerevisiae; details: Table 4 conditions
[4] = system: Saccharomyces cerevisiae RAK3599 strain; assay: Leucine concentration in AKD culture medium, RAK3599 strain (FIG. 16B); type: cell-based
[5] = system: Saccharomyces cerevisiae leucine-requiring RAK778 strain (BY4712 (leu2Δ0) strain); assay: Leucine concentration in AKD culture medium, leucine-requiring strain (FIG. 16A); type: cell-based
Description: Leucine concentration in the AKD culture mediums was adjusted to 0%, 0.0001%, 0.001%, 0.01%, 0.1%, and 1%, respectively, and proliferation of a Saccharomyces cerevisiae leucine-requiring RAK778 strain (BY4712 (leu2Δ0) strain) was investigated. […] Given the above-noted results, a preferred leucine concentration was understood to be around 0.1%.

[6] = system: Candida albicans JCM1542 strain; assay: Nutritional requirements in AYD culture medium (FIG. 52); type: cell-based; details: component eliminated from AYD culture medium
Method: (§1) In a case where no special provisions are made, a procedure for a cultivation experiment using the culture medium to be investigated for proliferation was such that a yeast undergoing investigation was pre-cultured in a YPD liquid culture medium at 28° C. for 24 hours, after which the yeast was adjusted such that OD600=20. […] In addition, OD600 was measured every 15 minutes by a spectrophotometer (Cell density meter co8000, WPA). Hereafter, data is represented by graphs for a case using the automatic spectrophotometer; however, these graphs are primarily used to compare the slope of logarithmic growth phase proliferation curves for each culture medium, and because OD600 is measured without dilution, values where OD600=3 to 3.5 or more may be incorrect.
(§2) Each of the yeast strains was cultured under identical conditions using the basic culture method described above.

[7] = system: Candida utilis JCM9624 strain; assay: Nutritional requirements in AYD culture medium (FIG. 51); type: cell-based; details: component eliminated from AYD culture medium
Method: as §1, §2

[8] = system: Candida glabrata BY23876 strain; assay: Nutritional requirements in AYD culture medium (FIG. 50); type: cell-based; details: component eliminated from AYD culture medium
Method: In a case where no special provisions are made, a procedure for a cultivation experiment using the culture medium to be investigated for proliferation was such that a yeast undergoing investigation was pre-cultured in a YPD liquid culture medium at 28° C. for 24 hours, after which the yeast was adjusted such that OD600=20. Thereafter, 5 μL of culture solution was inoculated in 5 mL of each culture medium to be investigated, which had been dispensed into L-shaped test tubes (final OD60=0.02); aerobic roller tube culture was performed at 28° C.; and OD was continuously measured with an automatic spectrophotometer (BioPhoto recorder TVS062CA, […]). In addition, OD600 was measured every 15 minutes by a spectrophotometer (Cell density meter co8000, WPA). Hereafter, data is represented by graphs for a case using the automatic spectrophotometer; however, these graphs are primarily used to compare the slope of logarithmic growth phase proliferation curves for each culture medium, and because OD600 is measured without dilution, values where OD600=3 to 3.5 or more may be incorrect.
Nutritional requirements of each of the following yeast strains were investigated in the AYD culture medium, and utility of the AYD culture medium was confirmed. Each of the yeast strains was cultured under identical conditions using the basic culture method described above.

RAK3599 strain = assay: Vitamin and FeCl3 concentration in AKD′ culture medium (FIGS. 22 to 28); type: cell-based, Saccharomyces cerevisiae; details: for proliferation at a content of 0: AKD′ culture medium without the substance
Method: as §1
Pyridoxine concentration in the AKD′ culture medium was adjusted to 0, 0.004, 0.04, 0.4, 4, and 40 μg/mL, respectively, and proliferation of the RAK3599 strain was investigated.
Pantothenic acid concentration in the AKD′ culture medium was adjusted to 0, 0.004, 0.04, 0.4, 4, and 40 μg/mL, respectively, and proliferation of the RAK3599 strain was investigated.
Thiamine concentration in the AKD′ culture medium was adjusted to 0, 0.004, 0.04, 0.4, 4, and 40 μg/mL, respectively, and proliferation of the RAK3599 strain was investigated.
Nicotinic acid concentration in the AKD′ culture medium was adjusted to 0, 0.004, 0.04, 0.4, 4, and 40 μg/mL, respectively, and proliferation of the RAK3599 strain was investigated.
Myo-inositol concentration in the AKD′ culture medium was adjusted to 0, 0.02 μg/mL, 0.2 μg/mL, 2 μg/mL, 20 μg/mL, and 200 μg/mL, respectively, and proliferation of the RAK 3599 strain was investigated.
FeCl3 concentration in the AKD′ culture medium was adjusted to 0, 0.002, 0.02, 0.2, 2, and 20 μg/mL, respectively, and proliferation of the RAK3599 strain was investigated.

RAK2683 yeast strain [9] = details: glucose not added to BM culture medium; 2% ethanol, 2% glycerol or 0.1 to 2% albumin; 24 hours
Method: OD600 was measured after RAK2683 yeast strain had been cultivated for 24 hours in a culture medium in which between 0.1 and 2% albumin had been added to the BM culture medium.

[10] = system: commercially available baker's yeast; assay: Investigation of carbon source added instead of glucose in BM culture medium (FIG. 5); type: cell-based; details: 2% added singly instead of glucose in BM culture medium, 28° C., 24 hours
Method: OD600 was measured after commercially available baker's yeast had been cultivated at 28° C. for 24 hours in a culture medium in which 2% of sugars such as galactose, raffinose, trehalose, fructose, maltose, mannose, sucrose, and ribose, or DNA (negative control) had been added instead of glucose in the BM culture medium.

CC(=O)SCCNC(=O)CCNC(=O)[C@H](O)C(C)(C)COP(=O)(O)OP(=O)(O)OC[C@H]1O[C@@H](n2cnc3c(N)ncnc32)[C@H](O)[C@@H]1OP(=O)(O)O [Acetyl-CoA]
proliferation compared with YPD (RAK2683 yeast strain [1]): none of them reaching the proliferation level of YPD

N[C@@H](CC(=O)[O-])C(=O)[O-].O.[Na+].[Na+] [Aspartic acid, L-Aspartic acid sodium salt monohydrate]
proliferation compared with ammonium sulfate-added culture medium [2]: proliferation markedly improved over that of a culture medium to which ammonium sulfate had been added
proliferation when added singly as nitrogen source (RAK2683 yeast strain [3]): favorable proliferation

CC(C)(COP(=O)(O)OP(=O)(O)OC[C@H]1O[C@@H](n2cnc3c(N)ncnc32)[C@H](O)[C@@H]1OP(=O)(O)O)[C@@H](O)C(=O)NCCC(=O)NCCS [CoA]
proliferation compared with YPD (RAK2683 yeast strain [1]): none of them reaching the proliferation level of YPD

CC(C)C[C@H](N)C(=O)O [Leucine, L-Leucine]
concentration at which proliferation was inhibited [4]: 1%
concentration at which almost no proliferation was observed [5]: less than 0.001%
concentration at which proliferation reached a maximum value [5]: 0.1%
concentration at which proliferation was inhibited [5]: 1%
preferred concentration ([5]; from results with RAK778 and RAK3599 strains): around 0.1%

NC(=O)c1ccc[n+]([C@@H]2O[C@H](COP(=O)([O-])OP(=O)(O)OC[C@H]3O[C@@H](n4cnc5c(N)ncnc54)[C@H](O)[C@@H]3O)[C@@H](O)[C@H]2O)c1 [NAD]
proliferation compared with YPD (RAK2683 yeast strain [1]): none of them reaching the proliferation level of YPD

O=S(=O)([O-])[O-].[Zn+2] [Zn2+, zinc sulfate]
nutritional requirement of the strain [6]: preferable for proliferation
nutritional requirement of the strain [7]: preferable for proliferation

O=C(O)CCCC[C@@H]1SC[C@@H]2NC(=O)N[C@@H]21 [biotin]
nutritional requirement of the strain [6]: require
nutritional requirement of the strain [8]: require
nutritional requirement of the strain [7]: not require
concentration at which proliferation was slightly inhibited (RAK3599 strain; AKD′ culture medium): 200 µg/L
preferred concentration (RAK3599 strain; AKD′ culture medium): around 2 μg/L
proliferation at a content of 0 (RAK3599 strain): Almost no proliferation

CCO [ethanol]
proliferation as carbon source (RAK2683 yeast strain [9]): almost no proliferation

OCC(O)CO [glycerol]
proliferation as carbon source (RAK2683 yeast strain [9]): almost no proliferation

O=C(O)c1cccnc1 [nicotinic acid]
nutritional requirement of the strain [8]: require
concentration at which proliferation reached a maximum value (RAK3599 strain; AKD′ culture medium): 4 µg/mL
concentration at which proliferation was inhibited (RAK3599 strain; AKD′ culture medium): 40 µg/mL
preferred concentration (RAK3599 strain; AKD′ culture medium): around 4000 μg/L
proliferation at a content of 0 (RAK3599 strain): A significant degree of proliferation
OD600 after 24 hours (RAK3599 strain; AKD′ culture medium, nicotinic acid 0 μg/mL): 9
OD600 after 24 hours (RAK3599 strain; AKD′ culture medium, nicotinic acid 0.004 μg/mL): 10
OD600 after 24 hours (RAK3599 strain; AKD′ culture medium, nicotinic acid 0.04 μg/mL): 10
OD600 after 24 hours (RAK3599 strain; AKD′ culture medium, nicotinic acid 0.4 μg/mL): 9
OD600 after 24 hours (RAK3599 strain; AKD′ culture medium, nicotinic acid 4 μg/mL): 10
OD600 after 24 hours (RAK3599 strain; AKD′ culture medium, nicotinic acid 40 μg/mL): 8

Cc1ncc(CO)c(CO)c1O.Cl [pyridoxine, Pyridoxine hydrochloride]
nutritional requirement of the strain [8]: require
preferred concentration (RAK3599 strain; AKD′ culture medium): around 400 μg/L
proliferation at a content of 0 (RAK3599 strain): A fair degree of proliferation

O=C[C@H](O)[C@H](O)[C@H](O)CO [ribose]
proliferation as carbon source [10]: no proliferation whatsoever

Cc1ncc(C[n+]2csc(CCO)c2C)c(N)n1 [thiamine, Thiamine hydrochloride]
nutritional requirement of the strain [8]: require
nutritional requirement of the strain [7]: require
preferred concentration (RAK3599 strain; AKD′ culture medium): around 400 μg/L
proliferation at a content of 0 (RAK3599 strain): A fair degree of proliferation

OC[C@H]1O[C@H](O[C@H]2O[C@H](CO)[C@@H](O)[C@H](O)[C@H]2O)[C@H](O)[C@@H](O)[C@@H]1O [trehalose]
proliferation as carbon source [10]: no proliferation whatsoever

albumin
proliferation as carbon source (RAK2683 yeast strain [9]): almost no proliferation
